No end group written: not given here.
Legend:
A. baumannii ATCC 19606 [1] = test: Cytoplasmic membrane depolarization assay (DiSC3-5); format: cell-based, Acinetobacter baumannii; details: A. baumannii ATCC 19606, peptides at their MIC, 60 min; compared with polymyxin B and levofloxacin
Protocol: The cytoplasmic membrane depolarization assay was performed using the membrane-potential-sensitive dye DiSC3-5. A. baumannii ATCC 19606 in the mid-logarithmic phase were washed and resuspended at 0.05 OD ml^−1 (optical value at 600 nm) in HEPES buffer (pH 7.2) containing 20 mmol l^−1 of glucose and 0.1 mol l^−1 of KCl. DiSC3-5 (20 μmol l^−1) was added to the bacterial suspension (100 μl per well) for 15 min to stabilize the fluorescence, which indicates the incorporation of the dye into the bacterial membrane, and then the peptides were mixed 1:1 with the bacteria to a final concentration corresponding to their MIC values. Membrane depolarization was then followed by reading changes in the fluorescence (λex = 622 nm, λem = 670 nm) over time for 60 min. The relative fluorescence was calculated using the untreated control (buffer + bacteria + fluorescent dye) and polymyxin B (positive control) as baselines and the following equation was applied to reflect the percentage of difference between the baselines and the sample: Percentagedifference=100×(fluorescencesample−fluorescenceuntreatedcontrol)/fluorescenceuntreatedcontrol.

A. baumannii ATCC 19606 [2] = format: cell-based, Acinetobacter baumannii; details: ATCC 19606, 24 h
Excerpt: In this study, we used the following pathogenic bacterial strains: A. baumannii ATCC 19606, E. coli ATCC 11775, E. coli AIC221 [E. coli MG1655 phnE_2::FRT (control strain for AIC 222)], E. coli AIC222 [E. coli MG1655 pmrA53 phnE_2::FRT (polymyxin resistant; colistin-resistant strain)], K. pneumoniae ATCC 13883, P. aeruginosa PAO1, P. aeruginosa PA14, Staphylococcus aureus ATCC 12600, S. aureus ATCC BAA-1556 (methicillin-resistant strain), Enterococcus faecalis ATCC 700802 (vancomycin-resistant strain), and Enterococcus faecium ATCC 700221 (vancomycin-resistant strain). Pseudomonas Isolation (P. aeruginosa strains) agar plates were exclusively used in the case of Pseudomonas species. All the other pathogens were grown in Luria–Bertani (LB) broth and on LB agar. In all the experiments, bacteria were inoculated from one-isolated colony and grown overnight (16 h) in a liquid medium at 37 °C. On the following day, inoculums were diluted 1:100 in fresh media and incubated at 37 °C to mid-logarithmic phase.
Broth microdilution assays were conducted to establish the MIC for each peptide[53]–[55]. Peptides were added to untreated polystyrene 96-well microtitre plates and serially diluted twofold in sterile water, ranging from 0 to 64 μmol l^−1. A bacterial inoculum at a concentration of 10^6 CFU ml^−1 in LB medium was then mixed in a 1:1 ratio with the peptide solution. […] Each assay was performed in three independent replicates.

[3] = tested on: human embryonic kidney (HEK293T) cells; test: Cytotoxicity assay (MTT); format: cell-based; details: 24 h exposure, concentration range tested 4–64 μmol l^−1 (method: 8–128 μmol l^−1), three biological replicates
Protocol: One day before the experiment, an aliquot of 100 μl of the cells at 50,000 cells ml^−1 was seeded into each well of the cell-treated 96-well plates used in the experiment. The attached HEK293T cells were then exposed to increasing concentrations of the peptides (8–128 μmol l^−1) for 24 h. After the incubation period, we performed the 3-(4,5-dimethylthiazol-2-yl)-2,5-diphenyltetrazolium bromide tetrazolium reduction assay (MTT assay)[55]. The MTT reagent was dissolved at 0.5 mg ml^−1 in the medium without phenol red and was used to replace cell culture supernatants containing the peptides (100 μl per well). The samples were incubated for 4 h at 37 °C in a humidified atmosphere containing 5% CO2, yielding the insoluble formazan salt. The resulting salts were then resuspended in hydrochloric acid (0.04 mol l^−1) in anhydrous isopropanol and quantified by spectrophotometric measurements of absorbance at 570 nm. All assays were done as three biological replicates.

Row | MIC, A. baumannii ATCC 19606 (A. baumannii ATCC 19606 [2]) [µM] | Sequence | cytoplasmic membrane depolarization (DiSC3-5 fluorescence) (A. baumannii ATCC 19606 [1]) | other results
1 | – | HKIKINTIKLKIKLKI [Lophiosin-1-3] | effective depolarizers | –
2 | – | IASLHARSIARLLKRWINVHQGLGLKW [Mammuthusin-2-7] | highest depolarization activity within its family | –
3 | 64 | KRKRGLKLATALSLNNKF [Mylodonin-2] | – | –
4 | 32 | KTLKIIRLLF [Mammuthusin-3] | – | –
5 | – | LRIKNHWIHFRVLAKALW [Hesperelin-3-9] | – | cytotoxicity against HEK293T cells [3]: generally non-toxic, except for hesperelin-3-9
6 | 8 | RNLVRWVAGLKLKKKVIKIKVGIGRWANIK [Hydrodamin-3-9] | – | –
